The values that follow come from patent publication US10828290B2, “Thiazolecarboxamides and pyridinecarboxamide compounds useful as pim kinase inhibitors” (Incyte Corporation, priority 2013, dated 2020).

Molecules are shown by their SMILES. Where two headings read alike, the source gives them in different places.

Holding throughout (format): biochemical
Assay [1] deals with Pim-2 (Homo sapiens (Human), UniProt Q9P1W9). Briefly: Pim-2 kinase assay. As to the method:
Pim-2 kinase assay—20 μL reactions were run in white 384 well polystyrene plates dotted with 0.8 μL compound/DMSO in the assay buffer (50 mM Tris, pH 7.5, 0.01% Tween-20, 5 mM MgCl2, 0.01% BSA, 5 mM DTT), containing 0.05 μM Fluorescein-labeled CREBtide peptide substrate (Invitrogen PV3508), 1 mM ATP, and 1 nM enzyme (Invitrogen PV3649) for 2 h at 25° C. Reactions were stopped by addition of 10 μL TR-FRET Dilution Buffer (Invitrogen PV3574) with 30 mM EDTA and 1.5 nM LanthaScreen Tb-CREB pSer133 antibody (Invitrogen PV3566). After 30 min. incubation at room temperature, plates were read on a PHERAstar FS plate reader (BMG Labtech).
Although the above in vitro assays are conducted at 1 mM ATP compounds can also be evaluated for potency and in vitro activity against PIM targets utilizing Km conditions, where the concentration of ATP is set to the Km value and the assay is more sensitive to PIM inhibition activity.

Assay [2] has as its target Pim-3 (Homo sapiens (Human), UniProt Q86V86). Briefly: Pim-3 kinase assay. The conditions noted are these: 1 mM ATP; class symbols; read-out: Pim3 IC50. As to the method: Pim-1 and Pim-3 kinase assays—20 μL reactions were run in white 384 well polystyrene plates dotted with […] in the assay buffer (50 mM Tris, pH 7.5, 0.01% Tween-20, 5 mM MgCl2, 0.01% BSA, 5 mM DTT), containing 0.05 μM Biotin-labeled BAD peptide substrate (AnaSpec 62269), 1 mM ATP, and 2.5 pM (Pim-1, Invitrogen PV3503) or 1.25 pM (Pim-3, Millipore 14-738) enzyme for 1 h at 25° C. Reactions were stopped by addition of 10 μL STOP Buffer (150 mM Tris, pH=7.5, 150 mM NaCl, 75 mM EDTA, 0.01% Tween-20, 0.3% BSA) supplemented with Phospho-Bad (Ser112) Antibody (Cell Signaling 9291) diluted 666-fold, and Streptavidin donor beads (PerkinElmer 6760002) along with Protein-A acceptor beads (PerkinElmer 6760137) at 15 μg/mL each. Supplementation of the STOP buffer with beads and stopping the reactions were done under reduced light. Prior to the stopping reactions STOP buffer with beads was pre-incubated for 1 h in the dark at room temperature. After stopping the reactions, plates were incubated for 1 h in the dark at room temperature before reading on a PHERAstar FS plate reader (BMG Labtech) under reduced light.

For assay [3], the target named is Pim-1 (Homo sapiens (Human), UniProt P11309). Briefly: Pim-1 kinase assay. The settings on record: 1 mM ATP; class symbols; read-out: Pim1 IC50. As to the method:
Supplementation of the STOP buffer with beads and stopping the reactions were done under reduced light. Prior to the stopping reactions STOP buffer with beads was pre-incubated for 1 h in the dark at room temperature. After stopping the reactions, plates were incubated for 1 h in the dark at room temperature before reading on a PHERAstar FS plate reader (BMG Labtech) under reduced light.

Sequence of Pim-2 (Q9P1W9 whole entry): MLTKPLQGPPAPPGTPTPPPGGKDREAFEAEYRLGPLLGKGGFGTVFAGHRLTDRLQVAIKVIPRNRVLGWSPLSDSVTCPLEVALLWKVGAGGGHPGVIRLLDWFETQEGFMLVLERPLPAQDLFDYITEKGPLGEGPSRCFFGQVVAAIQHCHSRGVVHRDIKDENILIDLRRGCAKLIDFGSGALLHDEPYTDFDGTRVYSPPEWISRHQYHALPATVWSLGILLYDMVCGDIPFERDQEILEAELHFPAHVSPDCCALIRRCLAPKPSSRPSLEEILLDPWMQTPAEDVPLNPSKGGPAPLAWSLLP
Sequence of Pim-1 (P11309 whole entry): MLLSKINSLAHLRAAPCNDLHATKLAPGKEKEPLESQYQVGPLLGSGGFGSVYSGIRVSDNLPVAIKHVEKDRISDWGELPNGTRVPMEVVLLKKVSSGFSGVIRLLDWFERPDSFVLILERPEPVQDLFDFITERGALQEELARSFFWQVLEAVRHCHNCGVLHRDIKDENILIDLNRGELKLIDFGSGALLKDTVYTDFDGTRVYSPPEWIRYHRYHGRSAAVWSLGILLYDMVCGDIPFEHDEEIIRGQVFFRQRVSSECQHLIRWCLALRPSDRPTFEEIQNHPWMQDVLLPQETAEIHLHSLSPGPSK

`C[C@H]1CN(c2c(NC(=O)c3ccc(F)c(-c4c(F)cccc4F)n3)cnc3c2CCC3O)C[C@@H](N)[C@@H]1O` (mixture of isomers) [Example 37 (mixture of diastereoisomers), N-{4-[(3R,4R,5S)-3-Amino-4-hydroxy-5-methylpiperidin-1-yl]-7-hydroxy-6,7-dihydro-5H-cyclopenta[b]pyridin-3-yl}-6-(2,6-difluorophenyl)-5-fluoropyridine-2-carboxamide]: the IC50 was not above 100 nM in assay [1] (1 mM ATP, class symbols, read-out: Pim2 IC50); not above 100 nM in assay [2]; not above 100 nM in assay [3].

With `N[C@H]1CCCN(c2c(NC(=O)c3csc(-c4c(F)cccc4F)n3)cnc3ccccc23)C1` [Example 2, N-{4-[(3S)-3-Aminopiperidin-1-yl]quinolin-3-yl}-2-(2,6-difluorophenyl)-1,3-thiazole-4-carboxamide], the IC50 in assay [1] (Km ATP concentration rather than 1 mM, read-out: Pim2 IC50 at Km ATP concentration) fell in the range of 100 to 1000 nM.
